Assay [1] deals with EGFR L858R/T790M (Homo sapiens (Human), UniProt P00533, L858R/T790M). Description: HTRF-based EGFR biochemical assay (L858R/T790M). Particulars: 100 μM ATP. How it is done: (§1) EGFR biochemical activity measurements were carried out using the homogeneous time-resolved fluorescence (HTRF) assay (Cisbio). Inhibitors and DMSO normalizations were first dispensed to empty black low-volume 384-well plates (Corning) with D300 digital liquid dispenser (HP). All reactions were carried out at room temperature and solutions were added to plates with a Multidrop Combi Reagent Dispenser (ThermoFisher). The reaction mixture (10 μL final volume) contained 1 μM tyrosine kinase peptide-biotin substrate and mutant EGFR in a reaction buffer (50 mM HEPES pH 7,0, 5 mM MgCl2,1 mM MnCl2, 0.01% BSA, 2 mM TCEP, 0.1 mM NaVO4). Enzyme concentrations were adjusted to accommodate varying kinase activities (L858R 0.1 nM, L858R!T790M 0,02 nM). Enzyme reaction solution (2× concentrations, 5 μL) was added to 384-well plates containing compounds and incubated for 30 mins. Enzyme reactions were initiated with the addition of […] of ATP to a final concentration of 100 μM and reacted for 20 mins. Reactions were quenched with the addition of 10 μL of phospho-tyrosine antibody-Europium(III) cryptate (1-to-180 volume ratio) and Streptavidin-XL665 (46.7 nM) in EDTA-containing detection buffer, then incubated at room temperature for 1 hour, and read with a PHERAstar plate reader (excitation =337 nm, emission =620 nm and 665 nm).
EGFR L858R/T790M, sequence (P00533 25-1210 T790M/L858R): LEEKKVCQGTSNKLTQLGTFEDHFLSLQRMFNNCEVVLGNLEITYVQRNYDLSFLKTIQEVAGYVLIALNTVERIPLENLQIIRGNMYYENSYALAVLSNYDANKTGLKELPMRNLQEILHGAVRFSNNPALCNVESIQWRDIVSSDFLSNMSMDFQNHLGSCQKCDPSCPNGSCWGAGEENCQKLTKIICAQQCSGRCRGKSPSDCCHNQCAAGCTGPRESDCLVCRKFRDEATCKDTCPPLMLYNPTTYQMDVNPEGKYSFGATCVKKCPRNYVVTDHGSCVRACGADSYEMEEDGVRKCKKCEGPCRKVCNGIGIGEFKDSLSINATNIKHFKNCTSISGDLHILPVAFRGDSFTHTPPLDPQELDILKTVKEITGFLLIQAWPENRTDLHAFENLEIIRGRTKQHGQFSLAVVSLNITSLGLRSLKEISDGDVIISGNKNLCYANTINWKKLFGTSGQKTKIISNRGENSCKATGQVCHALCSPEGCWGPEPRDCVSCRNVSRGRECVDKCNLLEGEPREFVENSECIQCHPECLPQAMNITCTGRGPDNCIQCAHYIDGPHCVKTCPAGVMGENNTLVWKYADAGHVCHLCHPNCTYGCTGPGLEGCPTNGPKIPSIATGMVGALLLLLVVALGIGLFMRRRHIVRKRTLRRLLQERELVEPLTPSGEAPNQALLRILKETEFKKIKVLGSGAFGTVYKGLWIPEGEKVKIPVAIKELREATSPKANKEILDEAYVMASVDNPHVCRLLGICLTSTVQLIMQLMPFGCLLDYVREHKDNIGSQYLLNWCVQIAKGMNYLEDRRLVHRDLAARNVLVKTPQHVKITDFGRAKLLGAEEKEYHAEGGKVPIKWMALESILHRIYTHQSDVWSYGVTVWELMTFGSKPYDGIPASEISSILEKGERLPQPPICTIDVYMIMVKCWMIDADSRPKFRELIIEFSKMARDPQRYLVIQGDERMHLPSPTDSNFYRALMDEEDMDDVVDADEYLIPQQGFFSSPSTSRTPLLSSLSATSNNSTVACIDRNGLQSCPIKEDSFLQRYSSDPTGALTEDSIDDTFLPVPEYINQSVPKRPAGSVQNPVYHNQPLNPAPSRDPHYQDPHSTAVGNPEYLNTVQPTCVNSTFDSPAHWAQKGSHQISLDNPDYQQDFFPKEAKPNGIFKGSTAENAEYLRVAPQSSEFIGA
On the technique in general: In TR-FRET formats the signal depends on donor and acceptor labels being close together.

For assay [2], the target named is EGFR L858R (Homo sapiens (Human), UniProt P00533, L858R). Description: HTRF-based EGFR biochemical assay (L858R). Particulars: 100 μM ATP. The procedure:
as §1

Assay [3] has as its system EGFR L858R/T790M mutant Ba/F3 Cells. Description: Ba/F3 cell proliferation (Cell Titer Glo) in combination with cetuximab. Format: cell-based, murine. As to conditions: 72 hours. The source says: The EGFR mutant L858R, Del E746_A750, L858R/T790M, Del E746_A750/T790M, L858R/T790MIC797S, and DellT790MIC797S Ba/F3 cells have been previously described (Zhou, W., et al, Nature 462, 2009, 1070-1074). All cell lines were maintained in RPM I 1640 (Cellgro; Mediatech Inc., Herndon, CA) supplemented with 10% FBS, 100 units/mL penicillin, 100 units/mL streptomycin. The EGFR 1941 R mutation was introduced via site directed mutagenesis using the Quick Change Site-Directed Mutagenesis kit (Stratagene; La Jolla, CA) according to the manufacturer's instructions. All constructs were confirmed by DNA sequencing. The constructs were shuttled into the retroviral vector JP1540 using the Cre-recombination system (Agilent Technologies, Santa Clara, CA). Ba/F3 cells were then infected with retrovirus per standard protocols, as described previously (Zhou, et al, Nature 2009). Stable clones were obtained by selection in puromycin (2 μg/ml),
Growth and inhibition of growth was assessed by the Cell Titer Glo assay (Promega, Madison, WI) and was performed according to the manufacturer's instructions. The Cell Titer Glo assay is a luminescence-based method used to determine the number of viable cells based on quantitation of the ATP present, which is directly proportional to the amount of metabolically active cells present. Ba/F3 cells of different EGFR genotypes were exposed to compounds as a single agent or in combination with […] for 72 hours and the number of cells used per experiment was determined empirically as has been previously established (Zhou, et al., Nature 2009). All experimental points were set up in triplicates in 384-well plates and all experiments were repeated at least three times. […] The curves were fitted using a non-linear regression model with a sigmoidal dose response.
(ATP-based viability assays read luminescence as a measure of living cells.)

Assay [4] has as its system NSCLC that have developed resistance to gefitinib or erlotinib. Particulars: patients with NSCLC resistant to gefitinib or erlotinib; cited from earlier work.

The values below come from patent US12377080B2, “Allosteric EGFR inhibitors and methods of use thereof” (Dana-Farber Cancer Institute, Inc., priority 2019, dated 2025).

The IC50 is the midpoint of a concentration-inhibition curve.

Molecules are shown by their SMILES.

EGFR L858R, sequence (P00533 25-1210 L858R): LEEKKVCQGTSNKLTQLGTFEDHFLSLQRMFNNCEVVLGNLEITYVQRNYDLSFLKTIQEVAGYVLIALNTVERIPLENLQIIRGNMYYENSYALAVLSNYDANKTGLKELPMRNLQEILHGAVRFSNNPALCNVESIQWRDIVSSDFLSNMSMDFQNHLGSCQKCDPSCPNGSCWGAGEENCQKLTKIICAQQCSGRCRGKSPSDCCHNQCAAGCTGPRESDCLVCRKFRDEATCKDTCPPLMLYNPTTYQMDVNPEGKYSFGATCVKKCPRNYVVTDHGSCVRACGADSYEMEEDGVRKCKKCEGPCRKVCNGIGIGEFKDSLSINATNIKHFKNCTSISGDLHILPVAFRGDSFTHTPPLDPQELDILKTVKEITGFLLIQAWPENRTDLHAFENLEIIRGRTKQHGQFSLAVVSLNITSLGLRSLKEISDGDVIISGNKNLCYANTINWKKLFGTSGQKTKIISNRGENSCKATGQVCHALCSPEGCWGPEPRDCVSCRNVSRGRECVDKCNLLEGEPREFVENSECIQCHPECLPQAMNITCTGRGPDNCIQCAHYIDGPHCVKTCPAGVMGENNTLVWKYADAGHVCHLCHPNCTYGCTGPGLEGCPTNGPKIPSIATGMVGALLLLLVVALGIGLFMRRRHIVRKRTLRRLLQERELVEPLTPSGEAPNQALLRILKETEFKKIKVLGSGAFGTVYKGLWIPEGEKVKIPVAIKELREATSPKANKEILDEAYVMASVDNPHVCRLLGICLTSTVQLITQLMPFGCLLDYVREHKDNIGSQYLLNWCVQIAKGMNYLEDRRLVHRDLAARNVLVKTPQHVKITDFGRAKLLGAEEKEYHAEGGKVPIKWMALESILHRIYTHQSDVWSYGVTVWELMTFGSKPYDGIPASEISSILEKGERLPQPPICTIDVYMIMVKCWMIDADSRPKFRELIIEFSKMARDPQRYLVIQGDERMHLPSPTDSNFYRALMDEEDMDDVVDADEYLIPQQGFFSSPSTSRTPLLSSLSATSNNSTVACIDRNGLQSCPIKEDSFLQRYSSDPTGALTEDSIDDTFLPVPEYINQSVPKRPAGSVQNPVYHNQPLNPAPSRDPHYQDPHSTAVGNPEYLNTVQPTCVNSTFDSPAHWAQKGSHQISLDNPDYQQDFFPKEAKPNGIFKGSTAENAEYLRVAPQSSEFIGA

As to `CN1CCC(c2ccc(-c3cnc4c(c3)C(=O)N(C(C(=O)Nc3nccs3)c3cccc(F)c3)C4)cc2)C1` (stereo not shown) [Compound 11, 2-(3-fluorophenyl)-2-(3-(4-(1-methylpyrrolidin-3-yl)phenyl)-5-oxo-5,7-dihydro-6H-pyrrolo-[3,4-b]pyridin-6-yl)-N-(thiazol-2-yl)acetamide], the IC50 is 3 nM in assay [1], 27 nM in assay [2] and 50 nM in assay [3].

For `CN1CCC(c2ccc(-c3ccc4c(n3)C(=O)N(C(C(=O)Nc3nccs3)c3cccc(F)c3)C4)cc2)C1` (stereo not shown) [Compound 16, 2-(3-fluorophenyl)-2-(2-(4-(1-methylpyrrolidin-3-yl)phenyl)-7-oxo-5,7-dihydro-6H-pyrrolo-[3,4-b]pyridin-6-yl)-N-(thiazol-2-yl)acetamide], the IC50 amounted to 1 nM in assay [1], 6 nM in assay [2] and 40 nM in assay [3].

Turning to `CN(C)C/C=C/C(=O)Nc1cc2c(Nc3ccc(F)c(Cl)c3)ncnc2cc1O[C@H]1CCOC1` [afatinib], in assay [4], the “RR (response rate)” value was “less than 10%”.

With `CN1CCN(c2ccc(-c3ccc4c(n3)C(=O)N(C(C(=O)Nc3nccs3)c3cccc(F)c3)C4)cc2)CC1` (stereo not shown) [Compound 14, 2-(3-fluorophenyl)-2-(2-(4-(4-methylpiperazin-1-yl)phenyl)-7-oxo-5,7-dihydro-6H-pyrrolo-[3,4-b]pyridin-6-yl)-N-(thiazol-2-yl)acetamide], the concentration for half-maximal inhibition (IC50) is 4 nM in assay [1], 32 nM in assay [2] and 120 nM in assay [3].
